Assay results as given in patent publication US20240368150A1 (Hoffmann-La Roche Inc., priority 2021, published 2024).
Where two headings read alike, the source gives them in different places.

Key:
[1] = system: primary human T-cells; test: Proliferation assay after 5 days (CellTiter-Glo, CD3 stimulation; PBS counter screen); assay type: cell-based; details: Homo sapiens, T-cell, 120 h, CD3 stimulation; for Emax: 5 days, normalized to reference compound A1 as stimulator control = 100%, DMSO neutral control, read-out: Emax proliferation (% activation); for EC50: primary human T-cells, CellTiter-Glo after 5 days, EC50 of fitted sigmoidal curve, read-out: Tcell Proliferation CD3 EC50
Method: Compounds are then added (see next section) to medium only plates.
Cells are assessed for proliferation 5 days later by measuring […] using CellTiterGlo (Promega).
After 5 days, for detection of ATP which is directly proportional to the number of cells present per well, the CellTiter-Glo® 2.0 Reagent is used. After visual control for toxicity or precipitations of the tested compounds, the plates are equilibrated to room temperature for 45 minutes. CellTiter-Glo® 2.0 Reagent is equilibrated to room temperature as well. After equilibration, an equal amount of CellTiter-Glo reagent is added to the cells (80 μl/well) with an electronic multichannel pipette. Plates are placed on a rocking platform for 15 minutes at room temperature. After incubation, the bottom of the plates is sealed with backing tape. Luminescence is measured with PHERAstar FSX (interval time 0.5 sec, gain 3000, focal height 15 mm) and exported as CSV file for analysis in Genedata screener.
Compounds which activate unstimulated cells (see IL2 measurements) or compounds which negatively affected viability were flagged.

[2] = system: primary human T-cells

Row | SMILES | Emax [1] [%] | EC50 [1] [nM] | EC50 [2] [nM]
1 | CC1(c2nnc(-c3cc4c(cc3F)S(=O)(=O)C[C@H](N)C(=O)N4Cc3ccc(Cl)cc3)o2)CCCO1 (stereo partly drawn) [Example 88, (3R)-3-amino-5-[(4-chlorophenyl)methyl]-8-fluoro-7-[5-(2-methyltetrahydrofuran-2-yl)-1,3,4-oxadiazol-2-yl]-1,1-dioxo-2,3-dihydro-1λ^6,5-benzothiazepin-4-o] | 97 | 242 | 689
2 | Cc1nc(F)ccc1-c1nc(-c2cc3c(cc2F)S(=O)(=O)C[C@H](N)C(=O)N3Cc2ccc(Cl)cc2)no1 [Example 312, (3R)-3-amino-5-[(4-chlorophenyl)methyl]-8-fluoro-7-[5-(6-fluoro-2-methyl-3-pyridyl)-1,2,4-oxadiazol-3-yl]-1,1-dioxo-2,3-dihydro-1λ^6,5-benzothiazepin-4-one] | 163 | 80.6 | 226
3 | Cc1nc(-c2nnc(-c3cc4c(cc3F)S(=O)(=O)C[C@H](N)C(=O)N4Cc3ccc(Cl)cc3)o2)no1 [Example 109, (3R)-3-amino-5-[(4-chlorophenyl)methyl]-8-fluoro-7-[5-(5-methyl-1,2,4-oxadiazol-3-yl)-1,3,4-oxadiazol-2-yl]-1,1-dioxo-2,3-dihydro-1λ^6,5-benzothiazepin-4-one] | 86 | 1740 | 1500
4 | NC(c1nc(-c2cc3c(cc2F)S(=O)(=O)C[C@H](N)C(=O)N3Cc2ccc(OC(F)(F)F)cc2)no1)C(F)(F)F (stereo partly drawn) [Example 329, (3R)-3-amino-7-[5-(1-amino-2,2,2-trifluoro-ethyl)-1,2,4-oxadiazol-3-yl]-8-fluoro-1,1-dioxo-5-[[4-(trifluoromethoxy)phenyl]methyl]-2,3-dihydro-1λ^6,5-benzothiazepin-4-one] | 70 | 5330 | 198
5 | CCc1noc(-c2ccc3c(c2)N(Cc2ccc(Cl)cc2)C(=O)[C@@H](N)CS3(=O)=O)n1 [Example 51, (3R)-3-amino-5-[(4-chlorophenyl)methyl]-7-(3-ethyl-1,2,4-oxadiazol-5-yl)-1,1-dioxo-2,3-dihydro-1λ^6,5-benzothiazepin-4-one] | 94 | 2690 | –
6 | N[C@H]1CS(=O)(=O)c2cc(F)c(-c3nc(COCc4ccccc4)no3)cc2N(Cc2ccc(Cl)cc2)C1=O [Example 45, (3R)-3-Amino-7-[3-(benzyloxymethyl)-1,2,4-oxadiazol-5-yl]-5-[(4-chlorophenyl)methyl]-8-fluoro-1,1-dioxo-2,3-dihydro-1λ^6,5-benzothiazepin-4-one] | 80 | 1970 | –
7 | COC(=O)N1CCC(C)(c2nc(-c3cc4c(cc3F)S(=O)(=O)C[C@H](N)C(=O)N4Cc3ccc(Cl)cc3)no2)CC1 [Example 307, methyl 4-[3-[(3R)-3-amino-5-[(4-chlorophenyl)methyl]-8-fluoro-1,1,4-trioxo-2,3-dihydro-1λ^6,5-benzothiazepin-7-yl]-1,2,4-oxadiazol-5-yl]-4-methyl-piperidine-1-carboxylate] | 143 | – | –
8 | N[C@H]1CS(=O)(=O)c2cc(F)c(-c3nc(Cc4ccc(Cl)cc4)no3)cc2N(Cc2ccc(Cl)cc2)C1=O [Example 44, (3R)-3-Amino-5-[(4-chlorophenyl)methyl]-7-[3-[(4-chlorophenyl)methyl]-1,2,4-oxadiazol-5-yl]-8-fluoro-1,1-dioxo-2,3-dihydro-1λ^6,5-benzothiazepin-4-one] | 122 | 702 | –
9 | CC(C)(NCC(F)(F)F)c1nc(-c2cc3c(cc2F)S(=O)(=O)C[C@H](N)C(=O)N3Cc2ccc(Cl)cc2)no1 [Example 298, (3R)-3-amino-5-[(4-chlorophenyl)methyl]-8-fluoro-7-[5-[1-methyl-1-(2,2,2-trifluoroethylamino)ethyl]-1,2,4-oxadiazol-3-yl]-1,1-dioxo-2,3-dihydro-1λ^6,5-benzothiazepin-4-one] | 162 | – | –
10 | CCCc1noc(-c2cc3c(cc2F)S(=O)(=O)C[C@H](N)C(=O)N3Cc2ccc(Cl)cc2)n1 [Example 42, (3R)-3-Amino-5-[(4-chlorophenyl)methyl]-8-fluoro-1,1-dioxo-7-(3-propyl-1,2,4-oxadiazol-5-yl)-2,3-dihydro-1λ^6,5-benzothiazepin-4-one] | 80 | 1310 | –
11 | N[C@H]1CS(=O)(=O)c2cc(F)c(-c3nnc(CCCC(F)(F)F)o3)cc2N(Cc2ccc(Cl)cc2)C1=O [Example 79, (3R)-3-Amino-5-[(4-chlorophenyl)methyl]-8-fluoro-1,1-dioxo-7-[5-(4,4,4-trifluorobutyl)-1,3,4-oxadiazol-2-yl]-2,3-dihydro-1λ^6,5-benzothiazepin-4-one] | 154 | 173 | –
12 | N[C@H]1CS(=O)(=O)c2cc(F)c(-c3nc(C4CC4)no3)cc2N(Cc2ccc(Cl)cc2)C1=O [Example 40, (3R)-3-amino-5-[(4-chlorophenyl)methyl]-7-(3-cyclopropyl-1,2,4-oxadiazol-5-yl)-8-fluoro-1,1-dioxo-2,3-dihydro-1λ^6,5-benzothiazepin-4-one] | 34 | > 20000 | –
13 | CCc1nc(-c2cc3c(cc2F)S(=O)(=O)C[C@H](N)C(=O)N3Cc2ccc(Cl)cc2)no1 [Example 290, (3R)-3-amino-5-[(4-chlorophenyl)methyl]-7-(5-ethyl-1,2,4-oxadiazol-3-yl)-8-fluoro-1,1-dioxo-2,3-dihydro-1λ^6,5-benzothiazepin-4-one] | 139 | 744 | –
14 | CCc1cn(-c2cc3c(cc2F)SC[C@H](N)C(=O)N3Cc2ccc(Cl)cc2)nn1 [Example 1, (3R)-3-amino-5-[(4-chlorophenyl)methyl]-7-(4-ethyltriazol-1-yl)-8-fluoro-2,3-dihydro-1,5-benzothiazepin-4-one] | 33 | > 20000 | –
15 | CC(C)(C)c1ncn(-c2cc3c(cc2F)S(=O)(=O)C[C@H](N)C(=O)N3Cc2ccc(Cl)cc2)n1 [Example 526, (3R)-3-amino-7-(3-tert-butyl-1,2,4-triazol-1-yl)-5-[(4-chlorophenyl)methyl]-8-fluoro-1,1-dioxo-2,3-dihydro-1λ^6,5-benzothiazepin-4-one] | 125 | – | –
16 | NCc1noc(-c2cc3c(cc2F)S(=O)(=O)C[C@H](N)C(=O)N3Cc2ccc(Cl)cc2)n1 [Example 50, (3R)-3-amino-7--[3-(aminomethyl)-1,2,4-oxadiazol-5-yl]-5-[(4-chlorophenyl)methyl]-8-fluoro-1,1-dioxo-2,3-dihydro-1λ^6,5-benzothiazepin-4-one] | 40 | > 20000 | –
17 | N[C@H]1CSc2cc(F)c(-n3cc(Cc4ccc(Cl)cc4)nn3)cc2N(Cc2ccc(Cl)cc2)C1=O [Example 2, (3R)-3-amino-5-[(4-chlorophenyl)methyl]-7-[4-[(4-chlorophenyl)methyl]triazol-1-yl]-8-fluoro-2,3-dihydro-1,5-benzothiazepin-4-one] | 34 | > 20000 | –
18 | CCn1nnc(-c2cc3c(cc2F)S(=O)(=O)C[C@H](N)C(=O)N3Cc2ccc(Cl)cc2)n1 [Example 7, (3R)-3-amino-5-[(4-chlorophenyl)methyl]-7-(2-ethyltetrazol-5-yl)-8-fluoro-1,1-dioxo-2,3-dihydro-1λ^6,5-benzothiazepin-4-one] | 264 | 2750 | –
19 | N[C@H]1CS(=O)(=O)c2cc(F)c(-n3cc(Cc4ccc(Cl)cc4)nn3)cc2N(Cc2ccc(Cl)cc2)C1=O [Example 4, (3R)-3-amino-5-[(4-chlorophenyl)methyl]-7-[4-[(4-chlorophenyl)methyl]triazol-1-yl]-8-fluoro-1,1-dioxo-2,3-dihydro-1λ^6,5-benzothiazepin-4-one] | 168 | 1050 | –
